Results taken from US6452009B1, “4-unsubstituted dihydroisoquinolinone derivatives and combinatorial libraries thereof” (Lion Bioscience AG, priority 1999, dated 2002).

Test system: Streptococcus pyogenes (ATCC #97-03 14289)
Experiment: Anti-microbial screen (growth inhibition, OD 570 nm)
Format: cell-based
Settings: ATCC97, compounds assayed at 170 μg/ml, growth in Todd Hewitt Broth read at 570 nm at 4 hrs, read-out: % Inhibition
Method: Streptococcus pyogenes (ATCC #97-03 14289) are grown in Todd Hewitt Broth (THB) (Difco Laboratories #0492-17-6) overnight until they reach an optical density of (OD=0.636@570 nm) by reading 0.1 ml in a 96 well microtiter plate in a Molecular Devices Thermomax. This preparation is kept frozen as stocks in 30% v/v glycerol in 1.5 ml aliquots at −70° C. until use. Prior to screening, 1.5 ml aliquots are thawed and diluted into 50 ml THB. 200 μl of this dilution is added to 92 wells of microtiter plate. To three wells THB (200 μl) is added to serve as a blank and a sterility control. Test compounds in DMSO and appropriate concentrations of DMSO are added to Growth/Solvent Controls at 0 time. Plates are read at 0 time at 570 nm in the Molecular Devices plate reader to obtain compounds correction factors for insoluble or colored compounds. Plates are read again at 4 hrs.
Compounds are assayed at a concentration of 170 μg/ml. Percent inhibition for each compound is calculated using the following formulae:
Color correct=(O.D. 0 hr −Blank 0 hr)—(Solvent Control 0 hr−Blank 0 hr)
% Inhibition=100−(O.D. test compound 4 hr−Blank 4 hr−color correct) divided by (O.D. growth/solvent control 4 hr−Blank 4 hr)

`Cc1ccc(C2Cc3ccc(NC(=O)c4cc(C(F)(F)F)cc(C(F)(F)F)c4)cc3C(=O)N2CCC(=O)N(CCN(C)C)CC(N)=O)cc1` (stereo not drawn) and `CN(C)CCN(CC(N)=O)C(=O)CCN1C(=O)c2cc(NC(=O)c3cc(C(F)(F)F)cc(C(F)(F)F)c3)ccc2CC1c1ccc(F)c(F)c1` (stereo not drawn) are the same in inhibition at 170 µg/mL: 99.2% for the first, 99.2% for the second.

Compared with `CN(C)CCN(CC(N)=O)C(=O)c1ccc(CN2C(=O)c3cc(NC(=O)CCC4CCCCC4)ccc3CC2c2ccc(C(F)(F)F)cc2)cc1` (stereo not drawn), `CN(C)CCN(CC(N)=O)C(=O)c1ccc(CN2C(=O)c3cc(NC(=O)CC4CC5CCC4C5)ccc3CC2c2ccc(C(F)(F)F)cc2)cc1` (stereo not drawn) is lower in inhibition at 170 µg/mL: 99.6% for the first, 98.1% for the second.

First: CN(C)CCCOc1ccc(C2Cc3ccc(NC(=O)CC4CCCC4)cc3C(=O)N2Cc2ccc(C(=O)N(CC(N)=O)Cc3ccccc3)cc2)cc1 (stereo not drawn)
Second: CN(C)CCCOc1ccc(C2Cc3ccc(NC(=O)CC4CC5CCC4C5)cc3C(=O)N2Cc2ccc(C(=O)N(CC(N)=O)Cc3ccccc3)cc2)cc1 (stereo not drawn)
The inhibition at 170 µg/mL of the first is higher: 99.2% for the first, 98.2% for the second.

Compared with `CN(C)CCCOc1ccc(C2Cc3ccc(NC(=O)CCC4CCCC4)cc3C(=O)N2CCC(=O)N(CC(N)=O)C2CC2)cc1` (stereo not drawn), `CN(C)CCCOc1ccc(C2Cc3ccc(NC(=O)Cc4cccc(C(F)(F)F)c4)cc3C(=O)N2CCC(=O)N(CC(N)=O)C2CC2)cc1` (stereo not drawn) is higher in inhibition at 170 µg/mL: 98.2% for the first, 99.9% for the second.

`CN(C)CCN(CC(N)=O)C(=O)c1ccc(CN2C(=O)c3cc(NC(=O)c4ccc(OC(F)(F)F)cc4)ccc3CC2c2cccc(C#N)c2)cc1` (stereo not drawn) and `CN(C)CCN(CC(N)=O)C(=O)c1ccc(CN2C(=O)c3cc(NC(=O)c4ccc(OC(F)(F)F)cc4)ccc3CC2c2ccccn2)cc1` (stereo not drawn) are the same in inhibition at 170 µg/mL: 99.5% for the first, 99.5% for the second.

Compared with `NC(=O)CN(Cc1cccc(C(F)(F)F)c1)C(=O)CCN1C(=O)c2cc(NC(=O)CCC3CCCC3)ccc2CC1c1cccc(Oc2ccc(Cl)c(Cl)c2)c1` (stereo not drawn), `NC(=O)CN(C(=O)CCN1C(=O)c2cc(NC(=O)/C=C/c3ccccc3C(F)(F)F)ccc2CC1c1cccc(Oc2ccc(Cl)c(Cl)c2)c1)C1CC1` (stereo not drawn) is lower in inhibition at 170 µg/mL: 98.7% for the first, 98.5% for the second.

Compared with `CN(C)CCN(CC(N)=O)C(=O)CCN1C(=O)c2cc(NC(=O)C3(c4ccccc4)CC3)ccc2CC1c1ccccc1` (stereo not drawn), `CN(C)CCN(CC(N)=O)C(=O)CCN1C(=O)c2cc(NC(=O)CCC3CCCC3)ccc2CC1c1cccc2ccccc12` (stereo not drawn) is higher in inhibition at 170 µg/mL: 99.5% for the first, 99.8% for the second.

Going from `CN(C)CCN(CC(N)=O)C(=O)c1ccc(CN2C(=O)c3cc(NC(=O)c4cccc(C(F)(F)F)c4F)ccc3CC2c2ccccc2)cc1` (stereo not drawn) to `CN(C)CCN(CC(N)=O)C(=O)c1ccc(CN2C(=O)c3cc(NC(=O)c4cccc(C(F)(F)F)c4F)ccc3CC2c2cccc(C#N)c2)cc1` (stereo not drawn), the inhibition at 170 µg/mL rises from 98.3% to 99.5%.

Compared with `CSc1ccc(C2Cc3ccc(NC(=O)CC(C)CC(C)(C)C)cc3C(=O)N2Cc2ccc(C(=O)N(CCN(C)C)CC(N)=O)cc2)cc1` (stereo not drawn), `CSc1ccccc1C(=O)Nc1ccc2c(c1)C(=O)N(Cc1ccc(C(=O)N(CCN(C)C)CC(N)=O)cc1)C(c1ccc(C(F)(F)F)cc1)C2` (stereo not drawn) is lower in inhibition at 170 µg/mL: 99.5% for the first, 98.3% for the second.

Compared with `Cc1cnc(C(=O)Nc2ccc3c(c2)C(=O)N(CCC(=O)N(CCN(C)C)CC(N)=O)C(c2ccc(C(C)(C)C)cc2)C3)cn1` (stereo not drawn), `CN(C)CCN(CC(N)=O)C(=O)CCN1C(=O)c2cc(NC(=O)c3ccc(F)c(F)c3)ccc2CC1c1ccc(C(C)(C)C)cc1` (stereo not drawn) is higher in inhibition at 170 µg/mL: 98.5% for the first, 98.7% for the second.

Compared with `COc1ccc(Br)c(C(=O)Nc2ccc3c(c2)C(=O)N(Cc2ccc(C(=O)N(CCN(C)C)CC(N)=O)cc2)C(c2ccc(F)c(F)c2)C3)c1` (stereo not drawn), `CN(C)CCN(CC(N)=O)C(=O)c1ccc(CN2C(=O)c3cc(NC(=O)/C=C/c4ccccc4C(F)(F)F)ccc3CC2c2ccc(F)c(F)c2)cc1` (stereo not drawn) is lower in inhibition at 170 µg/mL: 99.5% for the first, 98.4% for the second.

Compared with `COc1cc(OC)cc(C2Cc3ccc(NC(=O)CCC4CCCC4)cc3C(=O)N2CCC(=O)N(CCN(C)C)CC(N)=O)c1` (stereo not drawn), `COc1cc(OC)cc(C2Cc3ccc(NC(=O)CC(C)CC(C)(C)C)cc3C(=O)N2CCC(=O)N(CCN(C)C)CC(N)=O)c1` (stereo not drawn) is lower in inhibition at 170 µg/mL: 99.5% for the first, 99% for the second.

`CN(C)CCCOc1ccc(C2Cc3ccc(NC(=O)c4ccc(I)cc4)cc3C(=O)N2CCC(=O)N(CCN(C)C)CC(N)=O)cc1` (stereo not drawn) and `CN(C)CCCOc1ccc(C2Cc3ccc(NC(=O)Cc4cccc(C(F)(F)F)c4)cc3C(=O)N2CCC(=O)N(CCN(C)C)CC(N)=O)cc1` (stereo not drawn) are the same in inhibition at 170 µg/mL: 99.8% for the first, 99.8% for the second.

Compared with `CN(C)CCCOc1ccc(C2Cc3ccc(NC(=O)COc4ccc5ccccc5c4)cc3C(=O)N2Cc2ccc(C(=O)N(CCN(C)C)CC(N)=O)cc2)cc1` (stereo not drawn), `CCCN(CC(N)=O)C(=O)c1ccc(CN2C(=O)c3cc(NC(=O)c4ccc(OC(F)(F)F)cc4)ccc3CC2c2ccc(OCCCN(C)C)cc2)cc1` (stereo not drawn) is higher in inhibition at 170 µg/mL: 98.6% for the first, 99.7% for the second.

First: Cc1cc(C)c(C(=O)C(=O)Nc2ccc3c(c2)C(=O)N(CCC(=O)N(CCN(C)C)CC(N)=O)C(c2ccc(C(F)(F)F)cc2)C3)c(C)c1 (stereo not drawn)
Second: CN(C)CCN(CC(N)=O)C(=O)CCN1C(=O)c2cc(NC(=O)c3cccc(C(F)(F)F)c3F)ccc2CC1c1ccc(C(F)(F)F)cc1 (stereo not drawn)
The inhibition at 170 µg/mL of the first is lower: 98.9% for the first, 99.9% for the second.

Going from `CN(C)CCN(CC(N)=O)C(=O)c1ccc(CN2C(=O)c3cc(NC(=O)c4ccc(I)cc4)ccc3CC2c2cccnc2)cc1` (stereo not drawn) to `CN(C)CCN(CC(N)=O)C(=O)c1ccc(CN2C(=O)c3cc(NC(=O)/C=C/c4ccccc4C(F)(F)F)ccc3CC2c2ccc(C(C)(C)C)cc2)cc1` (stereo not drawn), the inhibition at 170 µg/mL falls from 98.8% to 98.5%.

`CCCC(CCC)C(=O)Nc1ccc2c(c1)C(=O)N(CCC(=O)N(CCN(C)C)CC(N)=O)C(c1cc(OC)cc(OC)c1)C2` (stereo not drawn) and `COc1cc(OC)cc(C2Cc3ccc(NC(=O)c4c(F)c(F)c(C)c(F)c4F)cc3C(=O)N2CCC(=O)N(CCN(C)C)CC(N)=O)c1` (stereo not drawn) are the same in inhibition at 170 µg/mL: 98.2% for the first, 98.2% for the second.

First: CC(CC(=O)Nc1ccc2c(c1)C(=O)N(Cc1ccc(C(=O)N(CC(N)=O)Cc3cccc(C(F)(F)F)c3)cc1)C(c1ccc(F)c(F)c1)C2)CC(C)(C)C (stereo not drawn)
Second: Cc1ccc2oc(C(=O)Nc3ccc4c(c3)C(=O)N(CCC(=O)N(CC(N)=O)Cc3cccc(C(F)(F)F)c3)C(c3ccc(F)c(F)c3)C4)cc(=O)c2c1 (stereo not drawn)
The inhibition at 170 µg/mL of the first is higher: 99.3% for the first, 99.2% for the second.

First: CN(C)CCN(CC(N)=O)C(=O)c1ccc(CN2C(=O)c3cc(NC(=O)c4cc(C(F)(F)F)cc(C(F)(F)F)c4)ccc3CC2c2ncc[nH]2)cc1 (stereo not drawn)
Second: COc1cc(OC)cc(C2Cc3ccc(NC(=O)c4ccc(OC(F)(F)F)cc4)cc3C(=O)N2CCC(=O)N(CCN(C)C)CC(N)=O)c1 (stereo not drawn)
The inhibition at 170 µg/mL of the first is lower: 98.7% for the first, 99.5% for the second.

First: Cc1cc(C)c(C(=O)C(=O)Nc2ccc3c(c2)C(=O)N(Cc2ccc(C(=O)N(CCN(C)C)CC(N)=O)cc2)C(c2ccc4ccccc4n2)C3)c(C)c1 (stereo not drawn)
Second: CN(C)CCCOc1ccc(C2Cc3ccc(NC(=O)C4(c5ccccc5)CC4)cc3C(=O)N2Cc2ccc(C(=O)N(CC(N)=O)Cc3cccc(C(F)(F)F)c3)cc2)cc1 (stereo not drawn)
The inhibition at 170 µg/mL of the first is higher: 99.2% for the first, 98.8% for the second.

Going from `CN(C)CCN(CC(N)=O)C(=O)CCN1C(=O)c2cc(NC(=O)CC3CC4CCC3C4)ccc2CC1c1ccc(C(F)(F)F)cc1` (stereo not drawn) to `CN(C)CCN(CC(N)=O)C(=O)CCN1C(=O)c2cc(NC(=O)CC3CC4CCC3C4)ccc2CC1c1ccc(F)c(F)c1` (stereo not drawn), the inhibition at 170 µg/mL falls from 99.2% to 98.4%.

First: NC(=O)CN(Cc1ccccc1)C(=O)CCN1C(=O)c2cc(NC(=O)CCC3CCCC3)ccc2CC1c1cccc2ccccc12 (stereo not drawn)
Second: CCCCCC(=O)Nc1ccc2c(c1)C(=O)N(CCC(=O)N(CC(N)=O)Cc1cccc(C(F)(F)F)c1)C(c1ccc(C(C)(C)C)cc1)C2 (stereo not drawn)
The inhibition at 170 µg/mL of the first is lower: 98.4% for the first, 99.4% for the second.

Compared with `CC1CCC(C(=O)Nc2ccc3c(c2)C(=O)N(CCC(=O)N(CCN(C)C)CC(N)=O)C(c2ccc(OCCCN(C)C)cc2)C3)CC1` (stereo not drawn), `COc1cccc(CN(CC(N)=O)C(=O)CCN2C(=O)c3cc(NC(=O)CC4CC5CCC4C5)ccc3CC2c2ccc(OCCCN(C)C)cc2)c1` (stereo not drawn) is lower in inhibition at 170 µg/mL: 99% for the first, 98.8% for the second.

First: CN(C)CCCOc1ccc(C2Cc3ccc(NC(=O)c4ccc(I)cc4)cc3C(=O)N2CCC(=O)N(CC(N)=O)Cc2cccc(C(F)(F)F)c2)cc1 (stereo not drawn)
Second: CCCCCCCC(=O)Nc1ccc2c(c1)C(=O)N(CCC(=O)N(CC(N)=O)Cc1cccc(C(F)(F)F)c1)C(c1ccc(OCCCN(C)C)cc1)C2 (stereo not drawn)
The inhibition at 170 µg/mL of the first is higher: 98.8% for the first, 98.5% for the second.

First: NC(=O)CN(Cc1cccc(C(F)(F)F)c1)C(=O)CCN1C(=O)c2cc(NC(=O)CC3CC4CCC3C4)ccc2CC1c1cccnc1 (stereo not drawn)
Second: CC(CC(=O)Nc1ccc2c(c1)C(=O)N(CCC(=O)N(CC(N)=O)C1CC1)C(c1ccc(F)c(F)c1)C2)CC(C)(C)C (stereo not drawn)
The inhibition at 170 µg/mL of the first is lower: 99.2% for the first, 99.7% for the second.

`CCCCCC/C=C/C(=O)Nc1ccc2c(c1)C(=O)N(CCC(=O)N(CCN(C)C)CC(N)=O)C(c1ccc(SC)cc1)C2` (stereo not drawn) showed an inhibition at 170 µg/mL of 99.9%.
